From US20050043262A1, “Novel specific inhibitor of the cyclin kinase inhibitor p21Waf1/Cip1 and methods of using the inhibitor” (priority 2000, published 2005)

Columns and labels:
cyclin D1/cdk 4 = experiment: Cyclin D1 immunoprecipitation / cdk 4 immunoblot in A10 VSM cells; format: cell-based, rat; settings: PDGF-BB 30 ng/ml, all times
Protocol: Cells were transfected with p21^Waf1/Cip1 antisense (SEQ. ID NO.:1) or sense oligodeoxynucleotide (SEQ. ID NO.:2), allowed to grow overnight in serum-free media. After overnight incubation in serum-free medium, the cells were stimulated with PDGF-BB (30 ng/ml) for the times indicated. The cells were subsequently immunoprecipitated with either cyclin D1 or cyclin E and immunoblotted with cdk 4 or cdk 2, respectively.

A10 VSM cells = experiment: Cell proliferation by counting adherent cells; format: cell-based, rat; settings: after 18 hours of PDGF incubation
Text: Cell culture, DNA synthesis, and proliferation assays: Cultures of both A10 and A7r5 rat aortic VSM cells were obtained from American Type Culture Collection (Rockville Md.). Bovine aortic smooth muscle cells were supplied by Martha O'Donnell (O'Donnell and Owen, 1986 Proc Natl. Acad. Sci.US.A., 83, p. 6132-6136). All of the cell lines were maintained as described (Weiss et al., 1998 Am. J. Physiol., 274, p. C1521-C1529) and were used between passages 15 and 25. The cells were growth-arrested by placing them in serum-free quiescence medium, exposed to growth factors as indicated, and [^3H]thymidine incorporation assessed as previously described (Weiss and Nuccitelli, 1992a J. Biol. Chem., 267, p. 5608-5613). Cell proliferation was assessed by counting of adherent cells on 4 representative fields under 100× magnification in each of 3 wells per experimental condition.
Antisense techniques were employed to examine the dependence of G1-phase progression on p21^Waf1/Cip1 in the VSM cell lines (Crooke, 1993 Antisense research and applications. Boca Raton, CRC.). […] DNA synthesis was assessed by [^3H]-thymidine incorporation and is expressed as mean ± s.e.m. of three wells per data point. […] After 18 hours of PDGF incubation, the cells were counted by examining representative fields at 100× magnification. The average number of cells in 4 random fields in each well was determined.

α-actin = experiment: alpha-actin level by Western blot in A431 cells; format: cell-based, human; settings: 200 nM oligodeoxynucleotide
Protocol: Western blots: Cells were grown to confluence in 6 cm culture dishes and serum deprived. After transfection and or treatment with appropriate agonist, the cells were washed with phosphate-buffered saline and lysed in lysis buffer and the supernatant was Western blotted as described (Weiss and Nuccitelli, 1992 J. Biol. Chem., 267, p. 5608-5613).
PMA is a potent inducer of p21^Waf1/Cip1 in a variety of different cell lines (Huang et al., 1995 Proc. Natl. Acad. Sci. US.A., 92, p. 4793-4797; Michieli et al., 1994 Cancer Res., 54, p. 3391-3395) and was employed to examine p21^Waf1/Cip1 levels after antisense transfection and confirm efficacy of translation to attenuate p21^Waf1/Cip1 levels. A431 cells were transfected with 200 nM antisense p21^Waf1/Cip1 (SEQ. ID NO.:1) or sense p21^Waf1/Cip1 oligodeoxynucleotide (SEQ. ID NO.:2). After overnight incubation in serum-free medium, the cells were stimulated with PMA (100 ng/ml) for the times indicated, lysed, and the lysates were Western blotted with p21^Waf1/Cip1 or α-actin antibody.

T47D cells = experiment: [3H]thymidine incorporation in T47D cells; format: cell-based, human; settings: 200 nM, serum 24 hours
Protocol: Cell Culture and DNA Synthesis: T47D (ductal carcinoma) and MCF7 (adenocarcinoma) human breast cancer cell lines were obtained from the American Type Culture Collection. All cell lines were maintained according to vendors' recommendations. The cells were growth arrested by placing them in serum-free quiescence media and exposed to 10% serum-containing media as indicated. [^3H]Thymidine incorporation was assessed as described previously (Weiss, R. H., and Nuccitelli, R., J. Biol. Chem., 267: 5608-5613, 1992).
Apoptotic cells will not incorporate thymidine into DNA during S phase, but [^3H]thymidine incorporation experiments will not distinguish between G1→S arrest and apoptosis. Serum-starved cells were transfected with 200 nM antisense p21 and control ODN, stimulated with serum-containing media, and examined for their ability to incorporate [^3H]thymidine into DNA. […] Antisense p21 attenuates [^3H]thymidine incorporation. MCF7 and T47D cells were grown to confluence, serum starved for 24 hours, and lipofected with antisense p21 (AS) or control (SC) ODN at the concentrations indicated (in nM). […] Serum was added for 24 hours, and the cells were incubated with [^3H]thymidine for the last 6 hours. DNA synthesis was assessed by [^3H]thymidine incorporation and is expressed as mean +SD of 3 wells/data point. *, P <0.05 compared with antisense p21 ODN transfection. […]

MCF7 cells = experiment: Nuclear morphology (Hoechst 33258) in MCF7 cells; format: cell-based, human; settings: serum stimulated 24 hours after lipofection
Protocol: Evaluation of Nuclear Morphology: Cells were seeded in 6-well culture dishes and treated with ODNs as described. The cells were then immersed in methanol for at least 10 min. Cells were stained in 1 μg/ml Hoechst 33258 in water with 1% nonfat dry milk. After staining for 8-10 min, the cells were rinsed in water and dried completely. Nuclear morphology was visually evaluated by fluorescence microscopy.
Apoptosis is the end result of an elaborate cascade of molecular events that ultimately result in programmed cell death; thus, a variety of tests are generally used to determine whether apoptosis is occurring. The methods to study apoptosis were employed: (a) assessment of nuclear morphology; (b) PARP cleavage; and (c) caspase-3 cleavage. Serum-starved cells were transfected with antisense p21 ODN or the control ODN, fixed, stained with Hoechst 33258, and examined under UV light. MCF7 and T47D cells were grown to confluence, serum starved for 24 hours, and lipofected with antisense p21 or control ODN. The cells were subsequently serum stimulated for another 24 hours, fixed, stained with Hoechst 33258, and examined under UV light at X400.

Row | Substance | association of cyclin D1 and cdk 4 (cyclin D1/cdk 4) | cell number / cell proliferation (A10 VSM cells) | cell number / cell proliferation (A10 VSM cells; listed as antisense p21^Waf1/Cip1 oligodeoxynucleotide) | levels of α-actin (α-actin) | [3H]thymidine incorporation (DNA incorporation) (T47D cells) | nuclear morphology (MCF7 cells)
1 | 5′-GACATCACCAGGATCGGACAT-3′ | marked decrease | parallel the alterations in DNA synthesis | inhibited | not altered | – | –
2 | 5′-ATC-CCC-AGC-CGG-TTC-TGA-CAT-3′ (antisense ATCCCCAGCCGGTTCTGACAT; listed as DNA, chemistry not fully specified) [antisense p21 ODN] | – | – | – | – | significant attenuation | nuclear morphological changes consistent with apoptosis
